Legend:
[1] = test system: xenogeneic GVHD (NSG mice transplanted with human PBMCs); test: Xenogeneic GVHD model; type: in vivo
Excerpt: After transplantation and treatment with either AJI-100 or vehicle control, human T cells were isolated from recipient mouse spleens at day +14, stained for pH3Ser^10 or pSTAT3 (+IL-6 stimulation), and analyzed as described.
NOD scid gamma (NSG) mice (male or female, 6-24 weeks old) were purchased from Jackson Laboratory (Bar Harbor, Me., USA) and raised per an IACUC-approved protocol in adherence to the NIH Guide for the Care and Use of Laboratory Animals. Mice received either (i) alisertib (30 mg/kg daily), TG101348 (45 mg/kg twice a day), a combination of alisertib and TG101348, or vehicle (methylcellulose) by oral gavage or (ii) AJI-100 (50 mg/kg daily) or vehicle (50% polyethylene glycol, 15% 2-hydroxypropyl-b-cyclodextrin, and 10% DMSO in sterile saline) ip from day 0 to day +14.
Mice were monitored for GVHD clinical scores (K. R. Cooke et al., An experimental model of idiopathic pneumonia syndrome after bone marrow transplantation: I. The roles of minor H antigens and endotoxin. Blood 88, 3230 (1996)), weight, and premoribund status. As indicated, mice were euthanized on day +14 to study recipient spleen Tconv, Tregs, TH1, TH17, B cells, and T-cell signal transduction. Human CD4^+ Treg (CD25+, CD127^−, Foxp3^+), Tconv(CD25^+, CD127^+), TH1, TH17, and CD19^+ B cells residing in recipient spleens were quantified by flow cytometry. T-cell pH3 ser10 and PSTAT3 were evaluated by flow cytometry. IL-17 ELISPOTs were performed using isolated human T cells from recipient mouse spleen as described above. Tissue samples were prepared, stained (Ventana Medical Systems, Tucson, Ariz.), and imaged (Vista, Calif., USA) to identify human T-cells as previously described. All vertebrate animal work was IACUC-approved.

[2] = Bioavailability; details: in vivo
[3] = day +14, 50 mg/kg daily, vs vehicle

NC(=O)c1ccc(Nc2ncc(F)c(Nc3ccccc3)n2)cc1 [bisanilinopyrimidine (II), 5-Fluoro-N4-phenyl-N2-[4-(4-carboxamide)phenyl]pyrimidine-2,4-diamine]
overall survival ([1]; 50 mg/kg daily i.p. day 0 to +14, 56 days of observation): 71.4% | overall survival of the mice ([1]; AJI-100 50 mg/kg daily ip day 0 to +14, vs vehicle): significantly improved | H3 ser10 phosphorylation in human T-cells harvested from mice [1, 3]: less H3 ser10 phosphorylation | pSTAT3+ human T cells harvested from recipient spleens [1, 3]: significantly reduced | H3 ser10 phosphorylation in human T-cells harvested from mice ([1]; day +14, 50 mg/kg daily, vs vehicle, listed as AJI-100): significantly reduced | GVHD severity (pathology) in liver and lung ([1]; day +14, vs vehicle): significantly reduced | Treg frequency in the liver ([1]; day +14, vs vehicle): similar | absolute number of Tregs in recipient spleens ([1]; day +14, vs vehicle): significantly reduced | absolute number of activated CD4+ Tconv in recipient spleens ([1]; day +14, vs vehicle): significantly reduced | absolute number of total CD4+ T cells in recipient spleens ([1]; day +14, vs vehicle): significantly reduced | absolute number of total spleen cells and human CD3+ T-cells in spleens ([1]; day +14, vs vehicle): similar | percentage of CD4+ alloreactive Tconv in the spleen ([1]; day +14, vs vehicle): similar | ratio of human Treg to CD4+ alloreactive/activated Tconv in recipient spleens ([1]; day +14, vs vehicle): significantly increased | relative amount of human Tregs in the spleen ([1]; day +14, vs vehicle): significantly increased | spleen-resident human TH1 T cells ([1]; day +14, vs vehicle): significantly reduced | spleen-resident human TH17 T cells ([1]; day +14, vs vehicle): significantly reduced | tissue-infiltrating human T cells in recipient liver (and lung) ([1]; day +14, vs vehicle): dramatically reduced | tissue-infiltrating human T cells in recipient liver (and lung) ([1]; day +14, vs vehicle, listed as AJI-100): significantly decreased | surviving mice with limited fur/skin changes without significant weight loss ([1]; day +56): 60% | onset and severity of GVHD ([1]; dosing day 0 to +14, vs vehicle): reduced the severity of GVHD | tolerability in mouse models ([1]; mouse, in vivo): tolerated | average GVHD clinical scores ([1]; surviving treated mice at day +56): < 2 | CD8+ T cell and CD19+ B cell reconstitution (absolute numbers) ([1]; vs vehicle): suppressive effect | frequencies of CD4+ and CD8+ T cells and CD19+ B cells ([1]; vs vehicle): similar | bioavailability [2]: superior bioavailability
